Entries after “also recorded” stand apart in the source; their conditions may differ.
Key:
17β-estradiol = assay: Plasma 17β-estradiol radioimmunoassay; type: in vivo, B6C3F1 mice; details: 160 mg/kg 15 d, d37 through d91
Experimental: Treatment: Immature mice (d28) were weighed and injected i.p. with either 80 mg/kg (1, 2, or 3 times daily), 160 mg/kg (1 or 2 times daily), or 240 mg/kg (once daily) with VCD or sesame oil (vehicle control, i.p.) for 15 d resulting in a total daily exposure of 80, 160, 240, or 320 mg/kg (n=6/group). All reagents were obtained from Sigma-Aldrich (St. Louis, Mo.). Estrous cycles of each animal were monitored daily by vaginal cytology from date of vaginal opening to persistent diestrus in VCD-treated mice, and from date of vaginal opening to d120 in controls. On d8, d10, d12, d14, d15, d30, d37, d46, d57 and d120, animals were weighed, euthanized by CO2 inhalation, and the ovaries, liver and trunk blood were collected. […] At each time point, adrenals, kidneys, uteri, ovaries, liver, and spleen were removed, grossly examined for lesions and wet tissue weights were recorded. […]
Hormone Assays: Plasma FSH was measured by radioimmunoassay (RIA). […] Tubes were centrifuged for 15 minutes at 3000 rpm, supernatant was decanted and pellets were counted in a gamma counter for 1 minute each. […] Plasma 17β-estradiol was measured in unextracted plasma by radioimmunoassay (Diagnostic Products Inc., CA). […] Circulating androstenedione was measured by specific RIA. […] The results of all RIAs were calculated by four-parameter logistic analysis using the software AssayZap (BioSoft, Ferguson, Mo.). […]

ovarian follicles = details: cited from earlier work
[1] = system: ovarian follicles (primordial, primary, secondary, antral); assay: Histology and follicle counting after VCD dosing; type: in vivo, B6C3F1 mice
Experimental: (§1) Treatment: Immature mice (d28) were weighed and injected i.p. with either 80 mg/kg (1, 2, or 3 times daily), 160 mg/kg (1 or 2 times daily), or 240 mg/kg (once daily) with VCD or sesame oil (vehicle control, i.p.) for 15 d resulting in a total daily exposure of 80, 160, 240, or 320 mg/kg (n=6/group). All reagents were obtained from Sigma-Aldrich (St. Louis, Mo.). Estrous cycles of each animal were monitored daily by vaginal cytology from date of vaginal opening to persistent diestrus in VCD-treated mice, and from date of vaginal opening to d120 in controls. On d8, d10, d12, d14, d15, d30, d37, d46, d57 and d120, animals were weighed, euthanized by CO2 inhalation, and the ovaries, liver and trunk blood were collected. Plasma was separated from whole blood and stored at −20° C., and liver tissues were stored at −80° C. At each time point, adrenals, kidneys, uteri, ovaries, liver, and spleen were removed, grossly examined for lesions and wet tissue weights were recorded. Additional blood samples were collected by retro-orbital puncture and plasma was collected and stored on d58, d79, d91, and d100.
Histology and oocyte counting: Ovaries were trimmed of fat and placed in Bouin's fixative (2 hours), transferred to 70% ethanol, paraffin-embedded and serially sectioned (4-5 μm), mounted and stained with hematoxylin and eosin. In every 20th section (10-13 sections per ovary), pre-antral follicles were classified as primordial (oocyte surrounded by a single layer of flattened granulosa cells), primary (oocyte surrounded by a single layer of cuboidal cells), secondary (oocyte surrounded by multiple layers of granulosa cells) or antral follicles (follicles containing a fluid-filled antrum). Femora were collected on d58 from both control and VCD-treated animals, fixed in 4% paraformaldehyde, transferred to formaldehyde/formic acid (Cal-Rite, Richard Allan Scientific, Kalamazoo, […]., decalcified 24 hours, vacuum embedded in paraffin and 4.5 μm sections of distal metaphysis were prepared and stained with hematoxylin and eosin.
Data Analysis: Oocyte numbers were determined in ovaries from individual animals, averaged, and the means (±SEM) in control versus treated animals were analyzed for significant differences by one-way analysis of variance (ANOVA) with significance set at p<0.05. Post-hoc tests (Tukey-Kramer) were used where appropriate. The differences in plasma hormone concentrations among treatments were analyzed using a one-way ANOVA. The correlation coefficient was determined by regression analysis.

FSH = assay: Plasma FSH radioimmunoassay; type: in vivo, B6C3F1 mice; details: 160 mg/kg 15 d
Experimental: as §1
Hormone Assays: Plasma FSH was measured by radioimmunoassay (RIA). Rat FSH hormone antigen, rat FSH antiserum and mouse FSH reference preparation were purchased from the National Institute of Diabetes and Digestive and Kidney diseases. Iodination reagents (Iodo-Beads™28665, 28666) were purchased from Pierce (Rockford Ill.). Briefly, a standard curve was prepared and cold standards and samples (100 μl) were added to labeled tubes along with primary antibody (1:1400 dilution) and iodinated FSH. Samples were shaken and stored at 4 C overnight. On day 2, 100 μl secondary antibody (Sigma Chemical, cat. # R9133) was added (1:10) dilution along with 200 μl of 2% normal rabbit serum and incubated at room temperature for 5 minutes. Tubes were centrifuged for 15 minutes at 3000 rpm, supernatant was decanted and pellets were counted in a gamma counter for 1 minute each. All samples were run in duplicate. The mean sensitivity of the assay was 200 pg/ml and inter- and intra-assay coefficients of variation were 2.7% and 6.7% respectively. Plasma 17β-estradiol was measured in unextracted plasma by radioimmunoassay (Diagnostic Products Inc., CA). The mean sensitivity of the assay was 5.1 pg/ml. The intra-assay coefficient of variation was 5.3%. Circulating androstenedione was measured by specific RIA. Androstenedione standards and antibody were provided by Dr. Cheryl Dyer (Northern Arizona University). The mean sensitivity of the assay was 70 pg/ml with an inter-assay coefficient of variation of 5.3%. The results of all RIAs were calculated by four-parameter logistic analysis using the software AssayZap (BioSoft, Ferguson, Mo.). Results are the mean±SEM.

[2] = system: liver enzymes AST and ALT, hepatocellular vacuolar degeneration, plasma lipids; assay: Assessment of hepatic function and plasma lipids; type: in vivo, B6C3F1 mice
Experimental: Assessment of Hepatic Function: Hepatocellular vacuolar degeneration and enzymatic activity of circulating aspartate aminotransferase (AST) and alanine aminotransferase (ALT) were determined by the Diagnostic Laboratory of the Arizona Health Sciences Center. Total cholesterol and triglycerides were quantified using Sigma reagents 401-25P and 344-20 respectively. HDL was measured by precipitating apoB-containing lipoproteins (Boehringer Mannheim reagent 543004) and assaying cholesterol in the supernatant fraction using the Sigma 401-25P reagent.

[3] = 240 mg/kg (80 mg/kg 3× daily), 15 d, d15
[4] = 240 mg/kg (240 mg/kg 1× daily), 15 d, d15
[5] = 320 mg/kg (160 mg/kg 2× daily), 15 d, d15

C1CC2OC2CC1C1CO1 (stereo not shown) [VCD, 4-vinylcyclohexene diepoxide]
Plasma levels of 17β-estradiol (17β-estradiol): below the limit of detection
Activity on dermal application (ovarian follicles; dermal application in acetone): active
Follicle loss after other routes of exposure (ovarian follicles; oral, dermal, or inhalation exposure): follicle loss also occurs
Primary follicles ([1]; 80 mg/kg i.p. daily, 15 d, d15): 38.6 % of control
Primordial follicles ([1]; 80 mg/kg i.p. daily, 15 d, ovaries d15): 12.1 % of control
Primary follicles ([1]; 160 mg/kg (80 mg/kg 2× daily), 15 d, d15): 11.3 % of control
Primordial follicles ([1]; 160 mg/kg (80 mg/kg 2× daily, and 160 mg/kg 1× daily), 15 d, d15): 0 % of control
Primary follicles ([1]; 160 mg/kg (160 1× daily), 15 d, d15): 2.8 % of control
Antral follicles on d46 ([1]; 160 mg/kg i.p. 15 d, d46): 2.6 % of control
Primary follicles on d46 ([1]; 160 mg/kg i.p. 15 d, d46): 0.5 % of control
Primordial follicles on d46 ([1]; 160 mg/kg i.p. 15 d, d46): no primordial follicles
Secondary follicles on d46 ([1]; 160 mg/kg i.p. 15 d, d46): 0.7 % of control
Primary and primordial follicle numbers over time ([1]; 160 mg/kg i.p., d8-d30): reduced (p<0.05) primary and primordial follicle numbers progressively over time
Antral follicle numbers ([1]; 160 mg/kg, 15 d, d15-d46): progressively reduced
Primordial follicle loss at the optimal concentration ([1]; 160 mg/kg, injected 1× daily): complete loss of primordial follicles
Primary follicles [1, 3]: 5.1 % of control
Primordial follicles [1, 3]: 2.1 % of control
Primary follicles [1, 4]: 0 % of control
Primordial follicles [1, 4]: 0 % of control
Primary follicles [1, 5]: 0.6 % of control
Primordial follicles [1, 5]: 0 % of control
Plasma FSH (FSH; d37): 11.5 ± 5.7 ng/mL
Plasma FSH (FSH; d46): 14.3 ± 1.3 ng/mL
Plasma FSH (FSH; d58): 20.2 ± 1.2 ng/mL
Plasma FSH (FSH; d100): 25.8 ± 0.23 ng/mL
Plasma FSH (FSH; d120): 25.9 ± 1.1 ng/mL
Plasma FSH (FSH; d127 (data not shown)): increased (p<0.05) relative to controls
Circulating alanine aminotransferase (ALT) ([2]; 160 mg/kg 15 d, d1-d46): not different from controls; also recorded: within the normal range
Circulating aspartate aminotransferase (AST) ([2]; 160 mg/kg 15 d, d1-d46): not different from controls; also recorded: within the normal range
Total plasma cholesterol, HDL and triglycerides ([2]; d10, d15 and d37): within the normal range
Occurrence of hepatocellular vacuolar degeneration ([2]; naive, vehicle-treated control or VCD-treated mice, any time): no difference
